Source: patent US20250041272A1, “COMPOSITIONS AND METHODS FOR TREATING CANCER VIA PTP1B INHIBITION” (priority 2021, published 2025)

Assays:
[1] = test system: GEMM6 tumors; test: GEMM6 melanoma tumor model; assay type: in vivo
Description: Tumor implantation, treatment and harvest. For animal studies, 1*10^5 B16F10 luciferase-tagged melanoma cells, 1*10^6 GEMM6 melanoma cells or 2*10^6 LCC cells were implanted subcutaneously into C57BL/6J mice (randomized, both males and females, 000664 The Jackson laboratory). When indicated, mice received intraperitoneal injections 7 days after implantation with 100 μl of 5 mg/kg cisplatin (Tocris), 100 μl of 10 mg/kg BVT948 (Tocris) or 100 μl of 30 mg/kg of vemurafenib. […]
Immunohistochemistry analysis. Immunohistochemistry assay was carried out in formalin-fixed, paraffin-embedded 4 μm sections using primary antibodies against F4:80 (AbD Serotec), CD11b (Abcam), CD4 (eBioscience) or CD8a (eBioscience) on a Discovery Ultra Automated IHC staining system (Ventana). Sections were then imaged using a ScanScope XT microscope (Aperio) and quantified using Aperio software.

[2] = test system: Stat1 phosphorylation and MyD88 in macrophages; test: Transwell co-culture of M1 induced macrophages with tumor cells plus inhibitors (Western blot, qRT-PCR); assay type: cell-based, mouse; conditions: 24 hours
Description: Peritoneal macrophage isolation and culture. Peritoneal macrophages were done as described previously(65) from 8-week-old C57BL/6J mice (randomized, both male and female). PBS (Gibco) was injected in the mural peritoneal cavity to release the macrophages. After recovering, cells were centrifuged at 1200 rpm for 5 minutes, resuspended in DMEM high glucose, 10% FBS, 1% penicillin-streptomycin (Gibco) and plated. 2 hours after the last step, cells were washed with PBS and maintained in DMEM/F12 supplemented with 10% FBS, 1% penicillin-streptomycin and 20 ng/ml of M-CSF (Prospec) for 2 days. Macrophages were treated for 24 hours with 50 ng/ml LPS (Sigma Millipore), 100 ng/ml IFNγ (BioLegend), 300 ng/ml PAM3CSK4 (InvivoGen), 107 cells/ml heat killed Listeria Monocytogenes (HKLM) (InvivoGen), 100 ng/ml Flagellin Salmonella typhimurium standard (InvivoGen), 10 ng/ml FSL1 (InvivoGen), 2.5 ug/ml ssRNA40 (InvivoGen), 2.5 ug/ml CL 075 (Tocris), 5 μM ODN1826, 50 μM Fludarabine (SelleckChem), 50 nM Momelotinib (SelleckChem), 5 μM BVT948 (Sigma Millipore), 200 μM PTP1b inhibitor III (Santa Cruz Biotechnology Inc.), 5 μM NSC87877 (Santa Cruz Biotechnology Inc.), 50 μM PTP1b inhibitor (Cayman), 1 mM PTP Inhibitor IV (Santa Cruz Biotechnology Inc.), 1 μM TSC401, 300 nM UNC2371 (SelleckChem), 300 nM BMS777607 (SelleckChem), 300 nM LDC1267 (SelleckChem) 1.5 μg/ml recombinant Pros1 (R&D systems), 200 ng/ml recombinant Gas6 (R&D systems) or 10-500 μM Cisplatin (Tocris). All components were added as described in the text. Cell culture. B16F10 (CRL-6475, ATCC), Lewis lung carcinoma (LLC) (CRL-1642, ATCC), KPC2713 (Yuliya Pylayeva-Gupta laboratory, UNC) and MDA-MB-231 (HTB-26, ATCC) were cultured in DMEM high glucose supplemented with 10% FBS, 1% penicillin-streptomycin (Gibco). […]

[3] = test system: MyD88 protein in macrophages; test: Immunofluorescent staining of M1 macrophages cultured in B16F10 conditioned medium; assay type: cell-based, mouse; conditions: 24 hours
Description: Immunofluorescence staining and quantitation. After treatments, mouse macrophages were fixed with 4% formaldehyde (Electron Microscopy Sciences) and permeabilized with acetone (Fisher scientific). Samples were blocked using BlockAid blocking solution (Thermofisher scientific), were incubated with primary antibodies to MyD88 (Cell signaling), CD86 (Biolegend) and total STAT1 (Cell signaling) and Alexa Fluor 488-labeled secondary antibody (LifeTech) and were mounted with SlowFade Gold Antifade Mountant with DAPI (Invitrogen). Images were taken with using a BZ-X810 all-in-one fluorescence microscope (Keyence). Fluorescence intensity was measured with BZ-X800 software while colocalization was analyzed using ImageJ software with JACoP plugin (NIH)

[4] = BVT948 monotherapy, treatment from palpable tumors (50 mm^3), 8 mice per arm

## BVT948
[1]; BVT948 in combination with Vemurafenib
  decrease in GEMM6 tumor growth, combination: roughly 50%
[1]; BVT948 monotherapy, GEMM6 tumors
  tumor viability (H&E staining): not significantly changed
[1]; [4]
  mice completely regressing and immune to rechallenge 1 month later: 3/8
  mice showing reductions in tumor growth: 6/8
  mice that died (most likely drug toxicity or autoimmune response): 2/8
[1]; larger tumors (200 mm^3), BVT948 10 mg/kg or Vemurafenib 30 mg/kg intraperitoneal
  GEMM6 tumor growth, monotherapy vs vehicle: did not significantly reduce
[2]
  Stat1 phosphorylation at Tyrosine 701 and Serine 727: increased
[3]
  MyD88 protein level and localization: increased MyD88
